From publication PMC8955938, “c-Myc Protein Level Affected by Unsymmetrical Bisacridines Influences Apoptosis and Senescence Induced in HCT116 Colorectal and H460 Lung Cancer Cells” (International Journal of Molecular Sciences, 2022)
Where “and” joins values, the source holds several entries; their conditions need not be identical. Identical values can stand only once.

How the values were obtained:
Assay type in all cases: cell-based, human
HCT116 cells = assay: Cell cycle analysis (PI, flow cytometry), HCT116; details: HCT116, IC90 doses
Description: (§1) After drug treatment, trypsinized and floating cells (2 × 10^6) were pooled, washed twice with ice-cold PBS and fixed in 70% (v/v) ethanol overnight at −20 °C. Cells were stained with propidium iodide (PI) (BD Biosciences, San Jose, CA, USA) and monitored by FACS Accuri C6 (BD Biosciences, San Jose, CA, USA).

[1] = tested on: cleaved PARP in HCT116 cells; assay: PARP cleavage flow cytometry, HCT116; details: HCT116, IC90 doses, up to 120 h
Description: PARP cleavage was determined using Alexa Fluor 647-conjugated anti-cleaved PARP antibody (BD Biosciences, San Diego, CA, USA) according to the manufacturer’s instructions. Briefly, HCT116 and H460 cells (1 × 10^6) were trypsinized, pelleted, washed twice with ice-cold PBS and fixed in Fixation Buffer for 20 min on ice. After fixation, cells were rinsed twice with Perm Wash Buffer, stained with Alexa Fluor 647-conjugated anti-cleaved PARP antibody for 30 min, rinsed with Perm Wash Buffer and analyzed by flow cytometry with FACS Accuri C6 (BD, San Jose, CA, USA).

[2] = tested on: MYC gene expression in H460 cells; assay: RT-PCR MYC expression in H460; details: H460, IC90 doses
Description: (§2) HCT116, H460, CCD 841 CoN and MRC-5 cells after treatment with UAs were collected, washed twice with ice-cold PBS and resuspended in […] of PBS. mRNA was isolated using High Pure RNA Isolation Kit according to the manufacturer’s instructions (Roche, Basel, Switzerland). Briefly, cells were lysed in lysis-binding buffer and transferred to a filter tube. Contaminating DNA was removed by 15 min incubation of the filter tube with DNase I solution. The filter tube was washed once with buffer I and twice with buffer II, and after centrifugation, total RNA was eluted using the elution buffer. RNA concentration was determined by NanoDrop One (Thermo Scientific); 1 µg of RNA was reverse transcribed using Transcriptor First Strand cDNA Synthesis Kit according to the manufacturer’s instructions (Roche) in 20 µL of reaction containing 1 µg of RNA, […] anchored-oligo(dT)18Primer, 8 mM MgCl2, 20 U of Protector RNase Inhibitor, deoxynucleotide mix (1 mM each) and 22 U of Transcriptor Reverse Transcriptase. The reverse transcription reaction was carried out for 30 min at 55 °C and stopped by heating to 85 °C for 5 min and placing on ice. The cDNA solution was stored at −20 °C until use. Real-time polymerase chain reaction (PCR) was performed on 2 µL of cDNA using 0.2 µM forward and reverse primers on LightCycler® 480 using LightCycler® 480 SYBR Green I Master according to manufacturer’s instructions (Roche). Primers were designed using BLAST website. Their efficiency was checked, and they were ordered from Genomed (Warsaw, Poland). The sequences of primers were as follows: MYC set 1 forward primer, […]; MYC set 1 reverse primer, […]; MYC set 2 forward primer, […]; MYC set 2 reverse primer, […]; KRAS forward primer, […]; KRAS reverse primer, […]; reference gene, GAPDH forward primer ACCCACTCCTCCACCTTTG; and GAPDH reverse primer, CTCTTGTGCTCTTGCTGGG. Cycling conditions were as follows: 1 cycle for 7 min at 95 °C (preincubation), 45 cycles of amplification: 10 s at 95 °C (denaturation), 20 s at 62 °C (annealing), 30 s at 72 °C (extension), 1 cycle for obtaining melting curve and 1 cycle for 10 s at 40 °C (cooling). The results were standardized to the reference gene GADPH. The relative expression level of MYC and KRAS was quantified using comparative method […]. The results were obtained from three independent experiments, each of which was analyzed at least twice.

[3] = tested on: active caspase-3 in H460 cells; assay: Active caspase-3 flow cytometry, H460; details: H460, IC90 doses, 120 h
Description: (§3) Caspase-3 activity was determined using Alexa Fluor 647-conjugated anti-active caspase-3 antibody (BD Biosciences, San Diego, CA, USA) according to the manufacturer’s instructions. Briefly, HCT116 and H460 cells (1 × 10^6) were trypsinized, pelleted, washed twice with ice-cold PBS and fixed in Fixation Buffer for 20 min on ice. After fixation, cells were rinsed twice with Perm Wash Buffer, stained with Alexa Fluor 647-conjugated anti-active caspase-3 antibody for 30 min, rinsed with Perm Wash Buffer and analyzed by flow cytometry with FACS Accuri C6 (BD, San Jose, CA, USA).

H460 cells = assay: Cell cycle analysis (PI, flow cytometry), H460; details: H460, IC90 doses
Description: as §1

[4] = tested on: active caspase-3 in HCT116 cells; assay: Active caspase-3 flow cytometry, HCT116; details: HCT116, IC90 doses, 120 h
Description: as §3

[5] = tested on: KRAS gene expression in H460 cells; assay: RT-PCR KRAS expression in H460; details: H460, IC90 doses, with time of incubation up to 120 h
Description: as §2

Cc1ccc([N+](=O)[O-])c2c(NCCCN(C)CCCNc3ccc4ncn5c6ccccc6c(=O)c3c45)c3ccccc3nc12 [Compound C-2053]
Poli (polyploid cells) (HCT116 cells; 24 h): 8.89 ± 1.38% | cells in G1 (HCT116 cells; 24 h): 22.34 ± 2.79% | cells in G2/M (HCT116 cells; 24 h): 44.81 ± 7.10% | cells in S (HCT116 cells; 24 h): 19.19 ± 1.77% | cells in Sub-G1 (HCT116 cells; 24 h): 3.06 ± 1.09% | Poli (polyploid cells) (HCT116 cells; 72 h): 11.02 ± 2.20% | cells in G1 (HCT116 cells; 72 h): 35.18 ± 2.63% | cells in G2/M (HCT116 cells; 72 h): 36.32 ± 3.14% | cells in S (HCT116 cells; 72 h): 5.43 ± 1.59% | cells in Sub-G1 (HCT116 cells; 72 h): 10.45 ± 2.56% | Poli (polyploid cells) (HCT116 cells; 120 h): 14.62 ± 4.62% | cells in G1 (HCT116 cells; 120 h): 30.06 ± 4.35% | cells in G2/M (HCT116 cells; 120 h): 27.20 ± 4.16% | cells in S (HCT116 cells; 120 h): 4.10 ± 0.56% | cells in Sub-G1 (HCT116 cells; 120 h): 23.64 ± 4.86% and 23.6% | cells with more than 4N DNA (polyploid) (HCT116 cells; during the time of incubation (time not specified), control 10%): around 15% | cells in G2/M (4N DNA) (HCT116 cells; during the treatment after accumulation at 24 h (time not specified)): ~23% | cells with cleaved PARP [1]: least degraded | drop of MYC mRNA level [2]: 50% | relative mRNA level of MYC gene ([2]; with time of incubation up to 120 h): around 0.55 | cells with active caspase-3 [3]: 54.1% | Poli (polyploid cells) (H460 cells; 24 h): 2.76 ± 0.30% | cells in G1 (H460 cells; 24 h): 30.44 ± 2.27% | cells in G2/M (H460 cells; 24 h): 27.37 ± 2.20% | cells in S (H460 cells; 24 h): 33.77 ± 3.66% | cells in Sub-G1 (H460 cells; 24 h): 6.28 ± 1.52% | Poli (polyploid cells) (H460 cells; 72 h): 1.73 ± 0.52% | cells in G1 (H460 cells; 72 h): 36.08 ± 5.84% | cells in G2/M (H460 cells; 72 h): 24.96 ± 3.05% | cells in S (H460 cells; 72 h): 14.09 ± 2.46% | cells in Sub-G1 (H460 cells; 72 h): 22.37 ± 2.06% | Poli (polyploid cells) (H460 cells; 120 h): 2.39 ± 1.17% | cells in G2/M (H460 cells; 120 h): 19.77 ± 6.06% | cells in S (H460 cells; 120 h): 10.78 ± 1.76% | cells in Sub-G1 (H460 cells; 120 h): 41.51 ± 5.77% and 41.5% | cells with active caspase-3 [4]: 20.9% | relative amount of KRAS mRNA [5]: ~1.7
